One series has as its system rats. To be noted: rats fed standard chow, prolonged (16 h) fasting; cited from earlier work.
A further series concerns CPT1L mRNA. Put plainly: CPT1L mRNA in stably transfected AtT20 cells (northern blot). The series is classed as cell-based. To be noted: AtT20 cells expressing CPT1L-Ribo; normalized to β-actin. The text has this:
Potent anorexic drugs such as fatty acid synthase (FAS) inhibitors increase the levels of malonyl-CoA, which is derived from the carboxylation of acetyl-CoA by the enzyme acetyl-CoA carboxylase (ACC). High levels of malonyl-CoA in turn inhibit CPT1-dependent oxidation of long-chain fatty acyl-CoAs (LC-CoAs). Similarly, the ICV administration of exogenous fatty acids (LCFA) directly increases the cellular levels of LC-CoA. In either case the resulting increase in intracellular LC-CoA concentration leads to inhibition of feeding behavior. […] LEFT: A probe specific for the liver isoform of CPT1 (CPT1L) detected a ˜4.3 Kb band in the liver (L) and in hypothalamus (H), but not in hind limb muscle (M). RIGHT: Hybridization with a muscle-specific CPT1 probe (CPT1M) detected a ˜3 Kb band in […] muscle (M), but not in hypothalamus. Each lane contained 1.5 μg of mRNA. […] About 200 stable clones were selected for neomycin resistance and analyzed by Northern blot. […] Data are expressed as % of control after normalization with β-actin expression. […] Levels of LC-CoAs were measured by HPLC in liver and skeletal muscle tissues of rats infused IV with vehicle (▪) or CPT1 inhibitors (□). […]
Quantitation of CPT1 and neuropeptides mRNA by Northern and real-time PCR. […]

This is an account of results in US7705016B2, “Regulation of food intake by modulation of long-chain fatty acyl-CoA levels in the hypothalamus” (Albert Einstein College of Medicine of Yeshiva University, priority 2003, dated 2010).

As for `CCCCCCCC/C=C\CCCCCCCC(=O)O` [OA, oleic acid], the “decrease in hypothalamic NPY mRNA compared with ICV vehicle” value with rats is recorded as around 50%.
With “CPT1L-Ribo: plasmid (pTarget, CMV promoter) expressing a hammerhead ribozyme that specifically cleaves rat CPT1L mRNA, complexed to PEI for ICV injection (DNA CUGUACCAAAGAGCUGUAGAGUCCGUGAGGACGAAACGCCGCUCACAAUG)”, the “less CPT1L mRNA than control cells transfected with vector alone” value in the series with CPT1L mRNA is recorded as around 50%.
